We go through 26 compounds from patent publication US20250368625A1, “PIPERAZINES” (Grünenthal GmbH, priority 2024, published 2025).

By EC50 is commonly meant the concentration that produces a half-maximal response.

Each structure is given as a SMILES string. Where only a bound is given, the exact number is not on record here.

T1 sequence (P31391 whole entry): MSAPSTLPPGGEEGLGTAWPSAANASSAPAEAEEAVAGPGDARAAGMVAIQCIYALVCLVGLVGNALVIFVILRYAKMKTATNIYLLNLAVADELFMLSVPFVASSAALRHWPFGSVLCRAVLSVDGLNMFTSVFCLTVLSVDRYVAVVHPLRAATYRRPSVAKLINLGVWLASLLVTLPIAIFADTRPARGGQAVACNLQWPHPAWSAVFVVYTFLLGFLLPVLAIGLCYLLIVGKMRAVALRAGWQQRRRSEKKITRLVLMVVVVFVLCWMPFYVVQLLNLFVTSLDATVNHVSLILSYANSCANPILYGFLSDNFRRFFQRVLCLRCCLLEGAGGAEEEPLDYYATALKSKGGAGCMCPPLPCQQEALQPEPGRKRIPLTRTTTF

The assay concerns the target T1, human SSTR4 (Homo sapiens, UniProt P31391).
T1 construct: expressed in transfected cells; host or cells: CHO-K1
Put plainly: hSSTR4 cAMP assay (cAMP accumulation, LANCE Ultra cAMP kit, CHO-K1 human SSTR4 Gi cell line). In kind it is cell-based. The conditions noted are these: functional agonism, forskolin 10 μM stimulated CHO-K1 human SSTR4 Gi cells, 30 min at 25° C., at least duplicate, averaged; read-out: hSSTR4 EC50. A digest of the protocol:
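CHO-K1 cells expressing human SSTR4 (Gi), pre-cultured 18-20 h or thawed and used directly, stimulated with 10 μM forskolin plus test agonist in concentration series, 30 min at 25° C. Lysate cAMP read by TR-FRET (Eu-cAMP tracer/ULight-anti-cAMP, 1 h, 25° C). Normalized to forskolin-only and forskolin+100 nM SST14 controls, 4-parameter fit; ≥duplicate, averaged.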
A general note: cAMP levels reflect the balance of adenylyl cyclase and phosphodiesterase activity.
Consider `Cc1cccn2c(C(C)(C)NC(=O)[C@@H]3CN(C(=O)c4ccn(C)n4)CCN3)ncc12` [SC-084, (S)-4-(1-methyl-1H-pyrazole-3-carbonyl)-N-(2-(8-methylimidazo[1,5-a]pyridin-3-yl)propan-2-yl)piperazine-2-carboxamide], for which the EC50 was more than 10000 nM.

`Cc1cccn2c(C(C)(C)NC(=O)[C@@H]3CNCCN3Cc3ccccc3)ncc12` [SC-085, (S)-1-benzyl-N-(2-(8-methylimidazo[1,5-a]pyridin-3-yl)propan-2-yl)piperazine-2-carboxamide]: the EC50 is 0.11 nM.

On to `Cc1cccn2c(C(C)(C)NC(=O)[C@@H]3CNCCN3CC3CCOCC3)ncc12` [SC-086, (S)-N-(2-(8-methylimidazo[1,5-a]pyridin-3-yl)propan-2-yl)-1-((tetrahydro-2H-pyran-4-yl)methyl)piperazine-2-carboxamide], for which the EC50 was 0.16 nM.

As for `Cc1cccn2c(C(C)(C)NC(=O)[C@@H]3CNCCN3CC3CCC(F)(F)CC3)ncc12` [SC-087, (S)-1-((4,4-difluorocyclohexyl)methyl)-N-(2-(8-methylimidazo[1,5-a]pyridin-3-yl)propan-2-yl)piperazine-2-carboxamide], the EC50 was 0.27 nM.

Take `Cc1ccc(CN2CCNC[C@H]2C(=O)NC(C)(C)c2ncc3c(C)cccn23)cn1` [SC-088, (S)-N-(2-(8-methylimidazo[1,5-a]pyridin-3-yl)propan-2-yl)-1-((6-methylpyridin-3-yl)methyl)piperazine-2-carboxamide]: the concentration giving a half-maximal response (EC50) worked out at 0.79 nM.

As to `Cc1cccn2c(C(C)(C)NC(=O)[C@@H]3CNCCN3CC3CC(F)(F)C3)ncc12` [SC-089, (S)-1-((3,3-difluorocyclobutyl)methyl)-N-(2-(8-methylimidazo[1,5-a]pyridin-3-yl)propan-2-yl)piperazine-2-carboxamide], the EC50 is 0.55 nM.

Regarding `Cc1cccn2c(C(C)(C)NC(=O)[C@@H]3CNCCN3Cc3cnn(C)c3)ncc12` [SC-090, (S)-1-((1-methyl-1H-pyrazol-4-yl)methyl)-N-(2-(8-methylimidazo[1,5-a]pyridin-3-yl)propan-2-yl)piperazine-2-carboxamide], the EC50 turned out to be 1.8 nM.

As for `Cc1cc(CN2CCNC[C@H]2C(=O)NC(C)(C)c2ncc3c(C)cccn23)ccn1` [SC-091, (S)-N-(2-(8-methylimidazo[1,5-a]pyridin-3-yl)propan-2-yl)-1-((2-methylpyridin-4-yl)methyl)piperazine-2-carboxamide], the EC50 was determined as 0.06 nM.

Regarding `COCCN1CCNC[C@H]1C(=O)NC(C)(C)c1ncc2c(C)cccn12` [SC-092, (S)-1-(2-methoxyethyl)-N-(2-(8-methylimidazo[1,5-a]pyridin-3-yl)propan-2-yl)piperazine-2-carboxamide], the EC50 was found to be 1.1 nM.

As for `Cc1cccc2c(C(C)(C)NC(=O)[C@@H]3CNCCN3C)n[nH]c12` [SC-094, (S)-1-methyl-N-(2-(7-methyl-1H-indazol-3-yl)propan-2-yl)piperazine-2-carboxamide], the EC50 was determined as 0.21 nM.

Turning to `Cc1cccc2c(C(C)(C)NC(=O)[C@@H]3CN(C)CCN3)n[nH]c12` [SC-095, (S)-4-methyl-N-(2-(7-methyl-1H-indazol-3-yl)propan-2-yl)piperazine-2-carboxamide], the EC50 came to 2.9 nM.

Turning to `Cc1cccc2c(C(C)(C)NC(=O)[C@@H]3CNCCN3CC3CCOCC3)n[nH]c12` [SC-096, (S)-N-(2-(7-methyl-1H-indazol-3-yl)propan-2-yl)-1-((tetrahydro-2H-pyran-4-yl)methyl)piperazine-2-carboxamide], the EC50 came out at 0.46 nM.

With `COCCN1CCNC[C@H]1C(=O)NC(C)(C)c1n[nH]c2c(C)cccc12` [SC-097, (S)-1-(2-methoxyethyl)-N-(2-(7-methyl-1H-indazol-3-yl)propan-2-yl)piperazine-2-carboxamide], the 50% effective concentration (EC50) worked out at 1.2 nM.

Consider `Cc1cccc2c(C(C)(C)NC(=O)[C@@H]3CNCCN3CC(F)(F)F)n[nH]c12` [SC-098, (S)-N-(2-(7-methyl-1H-indazol-3-yl)propan-2-yl)-1-(2,2,2-trifluoroethyl)piperazine-2-carboxamide], for which the EC50 stood at 0.07 nM.

Turning to `CN1CCN[C@H](C(=O)NC(C)(C)c2nn(C)c3ccccc23)C1` [SC-099, (S)-4-methyl-N-(2-(1-methyl-1H-indazol-3-yl)propan-2-yl)piperazine-2-carboxamide], the EC50 turned out to be 21 nM.

Take `CN1CCNC[C@H]1C(=O)NC(C)(C)c1nn(C)c2ccccc12` [SC-100, (S)-1-methyl-N-(2-(1-methyl-1H-indazol-3-yl)propan-2-yl)piperazine-2-carboxamide]: the concentration for a half-maximal effect (EC50) was determined as 0.91 nM.

For the compound `COCCN1CCNC[C@H]1C(=O)NC(C)(C)c1nn(C)c2ccccc12` [SC-101, (S)-1-(2-methoxyethyl)-N-(2-(1-methyl-1H-indazol-3-yl)propan-2-yl)piperazine-2-carboxamide], the EC50 is 5.9 nM.

With `Cn1nc(C(C)(C)NC(=O)[C@@H]2CNCCN2CC(F)(F)F)c2ccccc21` [SC-102, (S)-N-(2-(1-methyl-1H-indazol-3-yl)propan-2-yl)-1-(2,2,2-trifluoroethyl)piperazine-2-carboxamide], the EC50 was determined as 0.84 nM.

Take `Cn1nc(C(C)(C)NC(=O)[C@@H]2CNCCN2CC2CCOCC2)c2ccccc21` [SC-103, (S)-N-(2-(1-methyl-1H-indazol-3-yl)propan-2-yl)-1-((tetrahydro-2H-pyran-4-yl)methyl)piperazine-2-carboxamide]: the EC50 came to 0.22 nM.

Regarding `CN1CCNC[C@H]1C(=O)NC(C)(C)c1ncc2c(Cl)cccn12` [SC-104, (S)-N-(2-(8-chloroimidazo[1,5-a]pyridin-3-yl)propan-2-yl)-1-methylpiperazine-2-carboxamide], the EC50 is 0.9 nM.

Take `CN1CCN[C@H](C(=O)NC(C)(C)c2ncc3c(Cl)cccn23)C1` [SC-105, (S)-N-(2-(8-chloroimidazo[1,5-a]pyridin-3-yl)propan-2-yl)-4-methylpiperazine-2-carboxamide]: the EC50 came out at 31 nM.

Take `Cn1cc(CN2CCNC[C@H]2C(=O)NC(C)(C)c2ncc3c(Cl)cccn23)cn1` [SC-106, (S)-N-(2-(8-chloroimidazo[1,5-a]pyridin-3-yl)propan-2-yl)-1-((1-methyl-1H-pyrazol-4-yl)methyl)piperazine-2-carboxamide]: the EC50 turned out to be 1.5 nM.

For `CC(C)(NC(=O)[C@@H]1CNCCN1CC1CC(F)(F)C1)c1ncc2c(Cl)cccn12` [SC-107, (S)-N-(2-(8-chloroimidazo[1,5-a]pyridin-3-yl)propan-2-yl)-1-((3,3-difluorocyclobutyl)methyl)piperazine-2-carboxamide], the EC50 amounted to 0.76 nM.

With `CC(C)(NC(=O)[C@@H]1CNCCN1)c1ncc2c(Cl)cccn12` [SC-108, (S)-N-(2-(8-chloroimidazo[1,5-a]pyridin-3-yl)propan-2-yl)piperazine-2-carboxamide], the EC50 worked out at 19 nM.

Consider `CN1CCNC[C@@H]1C(=O)NC(C)(C)c1ncc2c(Cl)cccn12` [SC-109, (R)-N-(2-(8-chloroimidazo[1,5-a]pyridin-3-yl)propan-2-yl)-1-methylpiperazine-2-carboxamide], for which the EC50 came out at 1600 nM.

For the compound `CN1CCNC[C@H]1C(=O)NC(C)(C)c1ncc2c(C(F)(F)F)cccn12` [SC-110, (S)-1-methyl-N-(2-(8-(trifluoromethyl)imidazo[1,5-a]pyridin-3-yl)propan-2-yl)piperazine-2-carboxamide], the EC50 is 36 nM.
